In brackets after ≈: the same amount, converted by molar mass. Where a name gives a salt, the structure may show the parent alone. Read-outs that look alike come from different tables or passages of the source. Values belong to the compound of their own block, whether it stands above or below them.
Tests used:
[1] = system: KB3 (epitheloid lung cancer) cell lines; assay: Cell growth inhibition (cytotoxicity), MTS assay, KB3 cell line; type: cell-based; conditions: for cytotoxic activity in words: structure-cytotoxicity discussion
Procedure: Cell growth inhibition was determined by the MTS assay; the number of viable cells were proportional to the extent of formazan production in the presence or absence of drugs. […]

[2] = system: bloodstream forms of T. brucei and T. congolense; assay: Trypanocidal activity in vitro, Alamar Blue assay; type: cell-based, Trypanosoma brucei and T. congolense
Description: Trypanosoma brucei and T. congolense are the causative agents of sleeping sickness in humans and nagana in cattle, respectively. The protozoan parasites live extracellularlyin blood and tissue fluids of mammals and are transmitted by the bite of infected tsetse flies (Glossina spp.). Here the trypanocidal activity against bloodstream forms of T. brucei and T. congolense of bis-8-hydroxy quinoline N-substituted benzylamines derivatives was investigated in vitro, according to methods described in. Steverding et al. (2006) Kinetoplastid Biology and Disease, 5(3): 1-5; Hongmance et al., (2007) Antimicrob. Agents Chemother. 51:1105-1106; and Zhao et al., (2005) Bio-org. Med. Chem.; 13: 3921-3926. Cells were seeded into 96-well tissue culture plates in 200 μl medium containing various concentrations of analogues dissolved in H2O. The controls contained the respective solvent alone. […] After 24 h (trypanosomes) or 43 h (HL-60) incubation, 20 μl of the colorimetric viability indicator Alamar Blue® was added to each well. The cells were incubated for a further 24 h (trypanosomes) or 5 h (HL-60) so that the total incubation time was 48 h. Then, the plates were read on a Dynatech MR5000ELISA reader (Denkendorf, Germany),using a test wavelength of 550 nm and a reference wave length of 630 nm. Each test was set up in duplicate and repeated three times. For comparison, the general cytotoxicity of the compounds was assayed with human myeloid leukaemia HL-60 cells. The anti-trypanosomal activities and the general cytotoxicities of the new analogues were evaluated using the Alamar Blue® assay.

[3] = system: MCF-7 (epithelial breast cancer); assay: Growth inhibition, MTT colorimetric assay, MCF7; type: cell-based; conditions: Homo sapiens, MCF7, 72 h; carcinoma; 3 days with drug; means of six values; unit inferred; read-out: IC50 MCF7
Procedure: (§1) A549 (human lung adenocarcinoma epithelial), BxPC3 (pancreatic cancer), LoVo (colon cancer), MCF-7 (epithelial breast cancer), PC3 (human prostate cancer), Hs683 (human glioma), T98G (glioblastoma), U373 (human glioblastoma-astrocytoma), U138 MG (human glioma), epithelial-like), SKMEL28 (human melanoma), B16-F10 (mouse melanoma) and RhTP (rhabdomyosarcoma) cell lines were cultured in presence of the drugs for 3 days. The cytotoxic activity is expressed as (IC50). Inhibition of cell proliferation measured by the MTT colorimetric assay. The values reported in Table 4 are means of six distinct values.

T98G (glioblastoma) = assay: cells; type: cell-based; conditions: Homo sapiens, T98G, 72 h; glioma; 3 days with drug; means of six values; unit inferred; read-out: IC50 T98G
Procedure: as §1

U138 MG (human glioma) = assay: Growth inhibition, MTT colorimetric assay, U138; type: cell-based; conditions: Homo sapiens, U138-MG, 72 h; glioma; 3 days with drug; means of six values; unit inferred; read-out: IC50 U138
Procedure: as §1, with “Compounds that met the criteria for activity on KB3 cells were further tested for drug growth inhibitory activity in 5 carcinoma, 6 glioma and 3 melanoma cell lines, shown in Table 4. A549” for “A549”, “values. The standard errors are <5% as compared to the mean values.” for “values.”

[4] = system: A549 (human lung adenocarcinoma epithelial); assay: Growth inhibition, MTT colorimetric assay, A549; type: cell-based; conditions: Homo sapiens, A549, 72 h; carcinoma; 3 days with drug; means of six values; unit inferred; read-out: IC50 A549
Procedure: as §1

GL19 = assay: Growth inhibition, MTT colorimetric assay, GL19; type: cell-based; conditions: GL19, 72 h; 3 days with drug; means of six values; unit inferred; read-out: IC50 GL19
Procedure: as §1, with “Compounds that met the criteria for activity on KB3 cells were further tested for drug growth inhibitory activity in 5 carcinoma, 6 glioma and 3 melanoma cell lines, shown in Table 4. A549” for “A549”, “values. The standard errors are <5% as compared to the mean values.” for “values.”

[5] = system: BxPC3 (pancreatic cancer); assay: Growth inhibition, MTT colorimetric assay, BxPC3; type: cell-based, human; conditions: Homo sapiens, BXPC-3, 72 h; carcinoma; 3 days with drug; means of six values; unit inferred; read-out: IC50 BxPC3
Procedure: Cells are cultured at 37° C. in Falcon culture dishes, incubated at 5% CO2 in a suitable culture medium available from Invitrogen Corp. Anti-proliferative activity is determined by an MTT assay (bromide of (3-[4,5-dimethylthiazolium-yl]diphenyltetrazolium)). According to one standard protocol, absorbance is measured at 570 nm (see Dumont et al. (2007) Neoplasia 9: 766-776.
as §1

RhTP (rhabdomyosarcoma) = assay: Growth inhibition, MTT colorimetric assay, RhTp; type: cell-based; conditions: 72 h; 3 days with drug; means of six values; unit inferred; read-out: IC50 RhTp
Procedure: as §1, with “Compounds that met the criteria for activity on KB3 cells were further tested for drug growth inhibitory activity in 5 carcinoma, 6 glioma and 3 melanoma cell lines, shown in Table 4. A549” for “A549”, “values. The standard errors are <5% as compared to the mean values.” for “values.”

B16-F10 (mouse melanoma) = assay: Growth inhibition, MTT colorimetric assay, B16F10; type: cell-based; conditions: Mus musculus, B16-F10, 72 h; melanoma; 3 days with drug; means of six values; unit inferred; read-out: IC50 B16F10
Procedure: as §1, with “Compounds that met the criteria for activity on KB3 cells were further tested for drug growth inhibitory activity in 5 carcinoma, 6 glioma and 3 melanoma cell lines, shown in Table 4. A549” for “A549”, “values. The standard errors are <5% as compared to the mean values.” for “values.”

Hs683 (human glioma) = assay: Growth inhibition, MTT colorimetric assay, HS683; type: cell-based; conditions: Homo sapiens, Hs 683, 72 h; glioma; 3 days with drug; means of six values; unit inferred; read-out: IC50 HS683
Procedure: as §1

LoVo (colon cancer) = assay: Growth inhibition, MTT colorimetric assay, LoVo; type: cell-based; conditions: Homo sapiens, LoVo, 72 h; carcinoma; 3 days with drug; means of six values; unit inferred; read-out: IC50 LoVo
Procedure: as §1

Host = assay: Growth inhibition, MTT colorimetric assay, Host; type: cell-based; conditions: 72 h; 3 days with drug; means of six values; unit inferred; read-out: IC50 Host
Procedure: as §1, with “Compounds that met the criteria for activity on KB3 cells were further tested for drug growth inhibitory activity in 5 carcinoma, 6 glioma and 3 melanoma cell lines, shown in Table 4. A549” for “A549”, “values. The standard errors are <5% as compared to the mean values.” for “values.”

SKMEL28 (human melanoma) = assay: Growth inhibition, MTT colorimetric assay, SKMEL-28; type: cell-based; conditions: Homo sapiens, SK-MEL-28, 72 h; melanoma; 3 days with drug; means of six values; unit inferred; read-out: IC50 SKMEL-28
Procedure: as §1, with “Compounds that met the criteria for activity on KB3 cells were further tested for drug growth inhibitory activity in 5 carcinoma, 6 glioma and 3 melanoma cell lines, shown in Table 4. A549” for “A549”, “values. The standard errors are <5% as compared to the mean values.” for “values.”

[6] = system: U373 (human glioblastoma-astrocytoma); assay: Growth inhibition, MTT colorimetric assay, U373; type: cell-based; conditions: Homo sapiens, U373 MG, 72 h; glioma; 3 days with drug; means of six values; unit inferred; read-out: IC50 U373
Procedure: as §1, with “Compounds that met the criteria for activity on KB3 cells were further tested for drug growth inhibitory activity in 5 carcinoma, 6 glioma and 3 melanoma cell lines, shown in Table 4. A549” for “A549”, “values. The standard errors are <5% as compared to the mean values.” for “values.”

KaKa = assay: Growth inhibition, MTT colorimetric assay, KaKa; type: cell-based; conditions: 72 h; 3 days with drug; means of six values; unit inferred; read-out: IC50 KaKa
Procedure: as §1, with “Compounds that met the criteria for activity on KB3 cells were further tested for drug growth inhibitory activity in 5 carcinoma, 6 glioma and 3 melanoma cell lines, shown in Table 4. A549” for “A549”, “values. The standard errors are <5% as compared to the mean values.” for “values.”

[7] = system: PC3 (human prostate cancer); assay: Growth inhibition, MTT colorimetric assay, PC3; type: cell-based; conditions: Homo sapiens, 72 h; carcinoma; 3 days with drug; means of six values; unit inferred; read-out: IC50 PC3
Procedure: as §1, with “Compounds that met the criteria for activity on KB3 cells were further tested for drug growth inhibitory activity in 5 carcinoma, 6 glioma and 3 melanoma cell lines, shown in Table 4. A549” for “A549”, “values. The standard errors are <5% as compared to the mean values.” for “values.”

[8] = KB3, Table 3B, MTS assay, triplicate, read-out: KB3 IC50
[9] = Table 3A, MTS assay, triplicate, read-out: KB3 IC50
[10] = 50% growth inhibition, 48 h total incubation, read-out: GI50
[11] = lowest concentration at which all cells were killed, 48 h total incubation, read-out: MIC
[12] = KB3, Table 3A, MTS assay, triplicate, read-out: KB3 IC50

Compound: Oc1ccc(CN(Cc2ccccc2)Cc2ccccc2)c2cccnc12 [BPM19,230, 5-((dibenzylamino)methyl)quinolin-8-ol]
IC50 [1, 8]: 1000 nM

Compound: 5,5′-(2-(pyridin-2-yl)ethylazanediyl)bis(methylene)diquinolin-8-ol) [BPM19,193]
IC50 [1, 9]: > 10000 nM

Compound: Oc1ccc(CNCc2ccc(C(F)(F)F)cc2)c2cccnc12 [BPM19,191, 5-((4-(trifluoromethyl)benzylamino)methyl)quinolin-8-ol]
IC50 [1, 8]: 10000 nM

Compound: Cn1cccc1CN(Cc1ccc(O)c2ncccc12)Cc1ccc(O)c2ncccc12 [BPM19,216, 5,5′-((1-methyl-1H-pyrrol-2-yl)methylazanediyl)bis(methylene)diquinolin-8-ol]
GI50 [2, 10]: 320 ± 10 nM
MIC [2, 11]: 1 µM (≈ 0.425 µg/mL)

Compound: Cc1ccc(CNCc2ccc(O)c3ncccc23)cc1 [BPM19,167, 5-((4-methylbenzylamino)methyl)quinolin-8-ol dihydrochloride]
GI50 ([2]; 48 h): 14800 ± 2590 nM
MIC ([2]; 48 h): 100 µM

Compound: 5,5′-(2-(pyrrolidin-1-yl)ethylazanediyl)bis(methylene)diquinolin-8-ol) [BPM19,214]
IC50 [1, 9]: 1000 nM

Compound: Oc1ccc(N(Cc2cccc3ccccc23)c2ccc(O)c3ncccc23)c2cccnc12 [BPM19,702, 5,5′-(naphthalen-1-ylmethylazanediyl)diquinolin-8-ol]
GI50 [2, 10]: 290 nM
MIC [2, 11]: 1 µM (≈ 0.444 µg/mL)

Compound: Oc1ccc(CN(Cc2ccc(OC(F)(F)F)cc2)Cc2ccc(O)c3ncccc23)c2cccnc12 [BPM19,205, 5,5′-(4-(trifluoromethoxy)benzylazanediyl)bis(methylene)diquinolin-8-ol]
GI50 [2, 10]: 320 ± 20 nM
MIC [2, 11]: 1 µM (≈ 0.505 µg/mL)
IC50 [1, 12]: 100 to 1000 nM

Compound: Cc1ccc2c(CN(Cc3ccc(C(F)(F)F)cc3)Cc3ccc(O)c4nc(C)ccc34)ccc(O)c2n1 [BPM19,876, 5,5′-(4-trifluoromethylbenzylazanediyl)bis(methylene)bis(2-methylquinolin-8-ol)]
GI50 [2, 10]: 3710 ± 240 nM
MIC [2, 11]: 100 µM (≈ 51.8 µg/mL)

IC50 [3]: 9460 nM
IC50 (T98G (glioblastoma)): 9760 nM
IC50 (U138 MG (human glioma)): > 10000 nM
IC50 [4]: 661 nM
IC50 [5]: 4340 nM
IC50 (RhTP (rhabdomyosarcoma)): > 10000 nM
IC50 (B16-F10 (mouse melanoma)): > 10000 nM
IC50 (Hs683 (human glioma)): 2860 nM
IC50 (LoVo (colon cancer)): 422 nM
IC50 (SKMEL28 (human melanoma)): > 10000 nM
IC50 [6]: 3730 nM
IC50 [7]: 993 nM
Compound: O=C(O)C1CCC(CN(Cc2ccc(O)c3ncccc23)Cc2ccc(O)c3ncccc23)CC1 (stereo not shown) [BPM19,225, 4-((bis((8-hydroxyquinolin-5-yl)methyl)amino)-methyl)cyclohexanecarboxylic acid]
IC50 (GL19): 7600 nM
IC50 (Host): > 10000 nM
IC50 (KaKa): > 10000 nM

Compound: Cc1ccc(C(=O)NCc2ccc(O)c3ncccc23)cc1 [BPM18,203, N-((8-hydroxyquinolin-5-yl)methyl)-4-methylbenzamide]
IC50 [1, 8]: 1000 nM
CC50 ([1]; KB3 cell line): 1000 nM
cytotoxic activity in words ([1]; KB3 cell line): inactive or only weakly active

Compound: Oc1ccc(CN(Cc2ccc(O)c3ncccc23)CC2CCCO2)c2cccnc12 (stereo not shown) [BPM19,197, 5,5′-((tetrahydrofuran-2-yl)methylazanediyl)bis(methylene)diquinolin-8-ol]
GI50 [2, 10]: 2990 ± 50 nM
MIC [2, 11]: 10 µM (≈ 4.15 µg/mL)
IC50 [1, 12]: 10000 nM

Compound: Oc1ccc(CNCc2ccccc2)c2cccnc12 [BPM18,726, 5-((benzylamino)methyl)quinolin-8-ol dihydrochloride]
IC50 [1, 8]: > 1000 nM

Compound: Oc1ccc(CNCc2cccc(C(F)(F)F)c2)c2cccnc12 [BPM19,114, 5-((3-(trifluoromethyl)benzylamino)methyl)quinolin-8-ol]
IC50 [1, 8]: 200 nM
cytotoxic activity in words ([1]; KB3 cell line): significant cytotoxic activity

Compound: CC(=O)O[C@@]12CO[C@@H]1C[C@H](O)[C@@]1(C)C(=O)[C@H](O)C3=C(C)[C@@H](OC(=O)[C@H](O)[C@@H](NC(=O)OC(C)(C)C)c4ccccc4)C[C@@](O)([C@@H](OC(=O)c4ccccc4)[C@H]21)C3(C)C [docetaxel, reference compound]
IC50 ([1]; compared with KB3 values, read-out: IC50 value of reference drug): 0.1 nM
